Measured values reported in US4007210A, “Novel 3-triphenylmethoxy-1-alkynes, 3-triphenylmethoxy-1-trans-alkenyl-dialkyl-alanes, and lithium 3-triphenyl-methoxy-1-trans-alkenyl-dialkyl-alanates” (American Cyanamid Company, priority 1975, dated 1977).

What was measured:
[1] = test system: indomethacin ulcers of the stomach; assay: protection against the ulcerogenic properties of indomethacin (ulcer score); type: in vivo, rats; conditions: 2.5 or lower = active
Experimental: The compounds of this invention provide protection against the ulcerogenic properties of indomethacin. This assay was carried out in the following manner.
Rats were starved for 48 hours (water was given ad libitum). Indomethacin (20 mg./kg. of body weight) was administered by the subutaneous route and one-half the dose of the test compound was administered by gavage at the same time. After three hours, the second half of the test compound was administered also by Gavage. Five hours after the administration of indomethacin the animals were decapitated and the stomachs removed. The stomachs were washed with distilled water, blotted on gauze, cut along the larger curvature, and the contents rinsed with distilled water. The stomachs were spread out, pinned on a cork and visualized under magnifying glass for ulcers. The criteria for scoring of ulcers was as previously reported. [Abdel-Galil et al. Brit. J. Pharmac. Chemotherapy 33:1-14 (1968)].
1 Petechial hemorrhage or pin point ulcer
3 Many ulcers, a few large
4 Many ulcers, mainly large
Control animals treated with indomethacin but not test compound consistently give scores of about 3.0-3.5. Control animals treated with neither indomethacin nor test compound give scores of about 0.5-0.8. Compounds producing a score of 2.5 or lower are considered to be active.

diastolic blood pressure = assay: hypotensive activity in anesthetized rats; type: in vivo, Male Wistar strain rats; conditions: intravenous, minimal dose for a decrease of about 10 mm. in diastolic blood pressure; for minimal effective dose: Rattus norvegicus
Experimental: This procedure is a modification of the technique described by Pike et al., Prostaglandins, Nobel Symposium 2, Stockholm, June, 1966; p. 165.
Male Wistar strain rats (Royal Hart Farms) averaging approximately 250 grams in weight were fastened to rat boards in a supine position by means of canvas vests and limb ties. The femoral area was infiltrated subcutaneously with lidocaine and the iliac artery and vein were exposed and cannulated. Arterial blood pressure (systolic/diastolic) was recorded using a Statham P23 Db pressure, the animals were anethetized before use with pentobarbital, 30 mg./kg. of body weight intravenously, and also were given hexamethoxium bitartrate, 2 mg/kg. of body weight intravenously. The test compounds were prepared by ultrasonic dispersion in a saline-Tween 80 vehicle. A constant intravenous dose volume of 0.5 ml. was administered and test doses ranged from 0.1 to 10.0 mg./kg. of body weight. Increasing or decreasing doses were selected depending on the dose response obtained. In Table 2B below are set forth the minimal doses required to produce a decrease of about 10 mm. in diastolic blood pressure for typical compounds of the present invention.

[2] = test system: bronchospasms elicited by 5-hydroxytryptamine; assay: bronchodilator activity, Konzett procedure, 5-hydroxytryptamine; type: in vivo, guinea pigs; conditions: Cavia porcellus; three logarithmic cumulative intravenous doses; spasmogen 5-hydroxytryptamine; read-out: Bronchodilator Activity (Konzett Assays) ED50, 5-hydroxytryptamine
Experimental: (§1) Bronchodilator activity was determined in guinea pigs against bronchospasms elicited by intravenous injections of 5-hydroxytryptamine, histamine or acetylcholine by the Konzett procedure. [See J. Lulling, P. Lievens, F. El Sayed and J. Prignot, Arzeimittel-Forschung, 18 995 (1968).]
(§2) In the table which follows bronchodilator activity for representative compounds of this invention against one or more of the three spasmogenic agents is expressed as an ED50 determined from the results obtained with three logarithemic cumulative intravenous doses.

[3] = test system: bronchospasms elicited by histamine; assay: bronchodilator activity, Konzett procedure, histamine; type: in vivo, guinea pigs; conditions: Cavia porcellus; three logarithmic cumulative intravenous doses; spasmogen histamine; read-out: Bronchodilator Activity (Konzett Assays) ED50, histamine
Experimental: as §1, §2

[4] = test system: bronchospasms elicited by acetylcholine; assay: bronchodilator activity, Konzett procedure, acetylcholine; type: in vivo, guinea pigs; conditions: Cavia porcellus; three logarithmic cumulative intravenous doses; column head printed choline; read-out: Bronchodilator Activity (Konzett Assays) ED50, choline
Experimental: as §1, §2

gastric acid secretion = gastric acid secretion inhibition, "Shay rat" procedure; type: in vivo, rats (male, CFE strain); conditions: intraduodenal dose 100 mg./kg. of body weight; 3 hours; 20% or more = active
Experimental: The novel compounds of the present invention are also effective inhibitors of gastric acid secretion and of ulcer development in experimental animals, and thus are potentially valuable as agents for the control of gastric acid secretion and of gastric erosion and as anti-ulcer agents. Gastric acid secretion inhibitory action is usually measured by the "Shay rat" procedure ^(1,2) with some modifications as follows.
The rats (male, CFE strain) were starved for 48 hours (water was given ad libitum) to permit evacuation of stomach contents. On the morning of the experiment, under ether anesthesia, the abdominal region was shaved and a midline incision (1-1 1/2 in.) was made with a scapel. With the help of a closed curved hemostate the duodenum was picked up. […]
The test compound or the vehicle, usually […], were injected into the duodenum as close as possible to the first ligature. […] The supernatant was collected, volume measured and recorded, 2 drops of a phenolphthalein indicator (1% in 95% ethanol) were added and the solution was titrated with 0.02N NaOH (or with 0.04N NaOH when large volumes of stomach contents were encountered) to pH 8.4 (because of usual coloring of the stomach contents, phenolphthalein was only used to permit visual indication that the end point was near) and the amount of acid present was calculated. […]

[5] = total oral dose 25 mg./kg. of body weight, control score 3.2, scale 0 (normal stomach) to 4 (many ulcers, mainly large)

SMILES: CCCCCC(O)/C=C/C1CCC(=O)C1(C)CCCCCCC(=O)O (stereo not drawn) [9-oxo-8β-methyl-15-hydroxy-13-trans-prostenoic acid]
- Score, Treated ([1]; total oral dose 12.5 mg./kg. of body weight, control score 3.0, scale 0-4): 2.0
- Minimal effective hypotensive dose (diastolic blood pressure): 2 mg./kg. of body wt.

SMILES: CCCCC[C@@H](O)/C=C/[C@H]1CCCC(=O)[C@@H]1CCCCCCC(=O)O (relative stereo) [9-oxo-10a-homo-15-epi-hydroxy-13-trans-prostenoic acid]
- minimal effective dose (diastolic blood pressure): 2 mg/kg

SMILES: CCCCC[C@H](O)/C=C/[C@H]1CCC(=O)[C@@H]1CCCCCC(CC)C(=O)O (stereo partly drawn) [9-oxo-15-hydroxy-2-ethyl-13-trans-prostenoic acid]
- Score, Treated ([1]; total oral dose 50 mg./kg. of body weight, control score 3.0, scale 0-4): 2.2
- ED50 [2]: 0.329 µg/kg
- ED50 [3]: 0.145 µg/kg
- ED50 [4]: 0.533 µg/kg
- minimal effective dose (diastolic blood pressure): < 2 mg/kg

SMILES: CC/C=C\CC(O)/C=C/C1CCC(=O)C1C/C=C\CCCC(=O)O (stereo not drawn) [9-oxo-15-hydroxy-5-cis,13-trans,17-cis-prostatrienoic acid]
- Minimal effective hypotensive dose (diastolic blood pressure): < 2 mg./kg. of body wt.

SMILES: CCCCC[C@@H](O)/C=C/[C@H]1CCC(=O)[C@@H]1CCCCCC(C)C(=O)O (stereo partly drawn) [2-methyl-9-oxo-15-epi-hydroxy-13-trans-prostenoic aid]
- minimal effective dose (diastolic blood pressure): 2 mg/kg

SMILES: CCCCC[C@H](O)/C=C/[C@H]1CCC(=O)[C@@H]1CCCCOCC(=O)OCC (relative stereo) [Ethyl 3-oxa-9-oxo-15-hydroxy-13-trans-prostenoate]
- minimal effective dose (diastolic blood pressure): 0.2 mg/kg

SMILES: CCCCCC(O)/C=C/[C@H]1CCC(=O)[C@@H]1CCCCC(C)(C)CC(=O)O (relative stereo) [9-oxo-15-hydroxy-3,3-dimethyl-13-trans-prostenoic acid]
- Percent Inhibition (gastric acid secretion) (gastric acid secretion): 51%

SMILES: CCCCC[C@H](O)/C=C/[C@H]1CCCC(=O)[C@@H]1CCCCCCC(=O)O (relative stereo) [9-oxo-10a-homo-15-hydroxy-13-trans-prostenoic acid]
- minimal effective dose (diastolic blood pressure): 2 mg/kg

SMILES: CCCCCC(O)/C=C\[C@H]1CCC(=O)[C@@H]1CCCCCCC(=O)O (relative stereo) [9-oxo-15-hydroxy-13-cis-prostenoic acid, 15-hydroxy-9-oxo-13-cis-prostenoic acid]
- Score, Treated ([1]; total oral dose 100 mg./kg. of body weight, control score 3.0, scale 0-4): 1.3
- ED50 [2]: 0.106 µg/kg

SMILES: CC/C=C\CC(C)(O)/C=C/C1CCC(=O)C1C/C=C\CCCC(=O)O (stereo not drawn) [9-oxo-15-hydroxy-15-methyl-5-cis,13-trans,17-cis-prostatrienoic acid]
- Minimal effective hypotensive dose (diastolic blood pressure): < 2 mg./kg. of body wt.

SMILES: CCCCC[C@@H](O)/C=C/[C@H]1CCC(=O)[C@@H]1CCCCOCC(=O)OCC (relative stereo) [Ethyl 3-oxa-9-oxo-15-epi-hydroxy-13-trans-prostenoate]
- minimal effective dose (diastolic blood pressure): 0.2 mg/kg

SMILES: CCCCC(CC)C(O)/C=C/[C@H]1CCC(=O)[C@@H]1CCCCCCC(=O)O (stereo partly drawn) [9-oxo-15-hydroxy-16-ethyl-13-trans-prostenoic acid]
- Score, Treated [1, 5]: 1.7

SMILES: CCCCC[C@H](O)/C=C/[C@H]1CCC(=O)[C@@H]1CCCCCC(C(=O)O)c1ccccc1 (stereo partly drawn) [2-phenyl-9-oxo-15-hydroxy-13-trans-prostenoic acid]
- minimal effective dose (diastolic blood pressure): 8 mg/kg

SMILES: CCCCC[C@H](O)/C=C/[C@H]1CCC(=O)[C@@H]1CCCCSCC(=O)O (relative stereo) [9-oxo-3-thia-15-hydroxy-13-trans-prostenoic acid]
- minimal effective dose (diastolic blood pressure): 2 mg/kg

SMILES: CCCCC[C@@H](O)/C=C/[C@H]1CCC(=O)[C@@H]1CCCCSCC(=O)O (relative stereo) [9-oxo-3-thia-15-epi-hydroxy-13-trans-prostenoic acid]
- Score, Treated [1, 5]: 2.3
- minimal effective dose (diastolic blood pressure): 2 mg/kg

SMILES: CCCCC[C@H](O)/C=C/[C@H]1CCC(=O)[C@@H]1CCCCCC(C)C(=O)O (stereo partly drawn) [2-methyl-9-oxo-15-hydroxy-13-trans-prostenoic acid]
- minimal effective dose (diastolic blood pressure): 2 mg/kg

SMILES: CCCC#CC(O)CC[C@H]1CCC(=O)[C@@H]1CCCCCCC(=O)O (stereo partly shown) [9-oxo-15-hydroxy-16-prostynoic acid]
- ED50 [4]: 0.32 µg/kg

SMILES: CCCCC[C@H](O)/C=C/[C@H]1CCC(=O)[C@@H]1CCCCOCC(=O)O (relative stereo) [3-oxa-9-oxo-15-hydroxy-13-trans-prostenoic acid]
- minimal effective dose (diastolic blood pressure): < 2 mg/kg
